Measured values reported in article PMC9569954, “The Antidepressant-like Activity, Effects on Recognition Memory Deficits, Bioavailability, and Safety after Chronic Administration of New Dual-Acting Small Compounds Targeting Neuropsychiatric Symptoms in Dementia” (International Journal of Molecular Sciences, 2022).
Read-outs that look alike come from different tables or passages of the source.

Experiments:
[1] = Pharmacokinetics and brain uptake after i.v. and i.g. administration; format: in vivo, male Wistar rats; conditions: rat; for half-life / Cmax / MRT / AUC(0-t) / C0 / clearance / bioavailability / Tmax / Kp / Vd: male, Wistar; for half-life: in vivo, elimination from body, route not stated; for bioavailability: i.g. 2 mg/kg vs i.v. 0.5 mg/kg, read-out: F (absolute bioavailability); for Kp: brain/plasma, read-out: Brain/Plasma ratio; for Vd: read-out: Vss
Excerpt: The compounds investigated, namely, PQA-AZ4 and PQA-AZ6 (UPLC/MS purity > 95%), were synthesized at the Department of Medicinal Chemistry, Jagiellonian University Medical College (synthesis described in [10]); PQ-10, (6,7-dimethoxy-4-[(3R)-3-(2-quinoxalinyloxy)-1-pyrrolidinyl]-quinazoline, was obtained from Sigma-Aldrich (St. Louis, MO, USA). For the studies, the compounds were suspended in 1% aqueous solution of Tween 80, while (+)-MK-801 (hydrogen maleate, Sigma-Aldrich, St. Louis, MO, USA) was dissolved in distilled water. In the behavioral studies, PQA-AZ4, PQA-AZ6, and PQ-10 were injected intraperitoneally (i.p.) once a day (between 9:00 AM and 10:00 AM) for 21 consecutive days at the minimum active doses selected previously, based on acute treatment and assessment in behavioral tests at a volume of 2 mL/kg body weight. The control groups received 1% aqueous solution of Tween 80 (Sigma-Aldrich, St. Louis, MO, USA) in the same schedule. For the pharmacokinetic study, PQA-AZ4 and PQA-AZ6 dissolved in 20% captizol (Ligand, San Diego, CA, USA) were administered intravenously (i.v.) and intragastrically (i.g.) at a dose of 0.5 and 2 mg/kg, respectively, while ketamine (50 mg/kg, (hydrochloride, Biowet Puławy, Puławy, Poland)) and xylazine (8 mg/kg, hydrochloride, Biowet Puławy, Poland)) were injected i.p.
HPLC grade methanol, acetonitrile and reagent grade formic acid, hydrochloric acid, potassium dihydrogen phosphate, orthophosphoric acid, and sodium chloride were purchased from Merck (Darmstadt, Germany). Tissues (control blood and brain) were obtained from adult male Wistar rats anesthetized by i.p. injection of 50 mg/kg ketamine plus 8 mg/kg xylazine, and blood samples were collected in heparinized tubes from the heart. Blood samples were collected at 0 (predose), 15, 60, 240, and 1440 min after compound administration. The plasma was separated by centrifugation (1000× g, 10 min). Plasma and brain were stored at −80 °C pending analysis. The LC/ESI-MS/MS experiments were performed on a UPLC ACQUITY H-Class PLUS/Xevo TQD (Waters Corporation, Milford, MA, USA) triple-quadrupole mass spectrometer equipped with an electrospray (ESI) ionization interface. Data acquisition and processing were accomplished using MassLynx data collection and integration software. For the chromatographic and mass spectrometric conditions, and sample pretreatment, please see the Supplementary Materials.
Pharmacokinetic parameters were calculated by a noncompartmental approach from the average concentration values, using Phoenix WinNonlin software (Certara, Princeton, NJ 08540 USA). The first-order elimination rate constant (λz) was calculated by linear regression of log concentration versus time. The area under the mean plasma and brain concentration versus time curve (AUC0→t) was calculated from zero to the last concentration point using the linear trapezoidal rule:(1) AUC0→t=∑i=1nCi+Ci+1/2·(ti+1−ti) where Ci is the concentration of the compound.
The area under the first-moment curve (AUMC0→t) was estimated by calculation of the total area under the first-moment curve:(2) AUMC0→t=∑i=1n((ti·Ci+ti+1·Ci+1)/2)·(ti+1−ti) where ti is the […].
Mean residence time (MRT) was calculated as:(3) MRT=AUMC0→t/AUC0→t
Systemic clearance (Cl) was calculated as:(4) Cl=Div/AUC0→t
The volume of distribution at steady state (Vss) was calculated as:(5) Vss=Div⋅AUMC0→t/(AUC0→t )^2
The absolute bioavailability (F) of PQA-AZ4 and PQA-AZ6 after i.g. administration was calculated as:(6) F(%)=AUCi.g./AUCi.v.⋅Di.v./Di.g.⋅100 where Di.v. and Di.g. are i.v. and i.g. doses of the studied molecules, respectively.
1. Methods in pharmacokinetic studies
Instrumentation and operating conditions
The LC/ESI-MS/MS experiments were performed on a UPLC ACQUITY H-Class PLUS/Xevo
TQD (Waters Corporation, USA) triple-quadrupole mass spectrometer equipped with an electrospray
(ESI) ionization interface. Data acquisition and processing were accomplished using MassLynx data […]

[2] = MTT cytotoxicity on normal human dermal fibroblast cells; format: cell-based; conditions: NHDF cells (normal human dermal fibroblasts), highest tested concentration (75 μM), read-out: cell viability
Excerpt: Alpha-MEM and the normal human dermal fibroblast cell line (NHDF) were obtained from Lonza (Lonza, Warsaw, Poland). Phosphate-buffered saline (PBS), fetal bovine serum (FBS), L-glutamine, and 100× antibiotic–antimycotic were from Cytogene (Zgierz, Poland). MTT (3-(4,5-dimethylthiazol-2-yl)-2,5-diphenyltetrazolium bromide) was from Sigma-Aldrich (Poznan, Poland) and DMSO was purchased from Archem (Kamieniec Wroclawski, Poland).
The viability of NHDF cells after treatment with PQA-AZ4 and PQA-AZ-6 was assayed using the previously described methodology. Briefly, 4.5 × 10^3 cells/well were seeded into a 96-multiwell plate and viability was evaluated using the MTT assay. Different volumes of each compound dissolved in DMSO (final concentrations 4.68, 9.37, 18.75, 37.5, and 75 μM, respectively), as well as DMSO itself as solvent control, were added to each well, mixed, and incubated for 48 h. Finally, the optical density was measured at 560 nm with a reference wavelength of 670 nm using an Asys UVM 340 Microplate Reader (Cambridge, UK). Results were expressed as the percentage of survival cells concerning the control (not treated cells).

[3] = Serum glucose, triglyceride and cholesterol concentrations; format: in vivo, rats; conditions: rat, 1 mg/kg/day i.p., 21 days
Procedure: The blood samples were collected immediately after decapitation and then centrifuged at 600× g […], 4 °C, to separate the plasma. The blood was used to determine metabolic parameters such as glucose, cholesterol, and triglyceride levels, together with liver enzymatic activity.
Standard enzymatic spectrophotometric tests (Biomaxima S.A., Lublin, Poland) were used to determine glucose, cholesterol, and triglyceride levels in the serum. In the presence of an appropriate enzyme, the substrate was converted to a colored compound. Absorbance was measured at a wavelength of 500 nm.

[4] = brain, iv, 0.5 mg/kg, i.v. 0.5 mg/kg
[5] = brain, po, 2 mg/kg, i.g. 2 mg/kg
[6] = plasma, iv, 0.5 mg/kg, i.v. 0.5 mg/kg, plasma
[7] = plasma, po, 2 mg/kg, i.g. 2 mg/kg

half-life [1] [h]	Cmax ([1]; iv, i.v. 0.5 mg/kg, brain) [ng/g]	MRT ([1]; iv, i.v. 0.5 mg/kg, brain) [h]	AUC(0-t) ([1]; iv, i.v. 0.5 mg/kg, plasma) [µg·h/mL]	C0 ([1]; iv, i.v. 0.5 mg/kg, plasma) [µg/mL]	MRT ([1]; iv, i.v. 0.5 mg/kg, plasma) [h]	clearance ([1]; iv, i.v. 0.5 mg/kg, plasma) [L/h/kg]	bioavailability ([1]; plasma, oral) [%]	Cmax ([1]; po, i.g. 2 mg/kg, brain) [ng/g]	MRT ([1]; po, i.g. 2 mg/kg, brain) [h]	AUC(0-t) ([1]; po, i.g. 2 mg/kg, plasma) [µg·h/mL]	Cmax ([1]; po, i.g. 2 mg/kg, plasma) [µg/mL]	MRT ([1]; po, i.g. 2 mg/kg, plasma) [h]	Tmax [1, 4] [h]	Tmax [1, 5] [h]	Kp ([1]; iv, 0.5 mg/kg, i.v. 0.5 mg/kg)	Kp ([1]; po, 2 mg/kg, i.g. 2 mg/kg)	Vd [1, 6] [L/kg]	Tmax [1, 7] [h]	Brain/Plasma ratio ([1]; i.g. 2 mg/kg)	SMILES	further results
~1	149	3.1	0.714	0.431	0.958	0.648	8.29	71.4	3.58	0.118	0.0467	1.38	0.25	1	0.9	5.7	0.8	≤ 1	5.68	COc1cccc(N2CCN(CC3CCN(c4ncnc5cc(OC)c(OC)cc45)C3)CC2)c1 (stereo not drawn) [PQA-AZ4, 6,7-Dimethoxy-4-(3-((4-(3-methoxyphenyl)piperazin-1-yl)methyl)pyrrolidin-1-yl)quinazoline]	bioavailability ([1]; plasma, po): 8.3%; AUC0→t ([1]; i.g. 2 mg/kg, brain): 40,314 ng·min/g; t0.5 ([1]; i.g. 2 mg/kg, brain): 214 min; t0.5 ([1]; i.g. 2 mg/kg, plasma): 92 min; AUC0→t ([1]; i.v. 0.5 mg/kg, brain): 40,806 ng·min/g; t0.5 ([1]; i.v. 0.5 mg/kg, brain): 220 min; t0.5 ([1]; i.v. 0.5 mg/kg, plasma): 67.3 min; viability at 48 h, 75 µM [2]: 19.9%; serum glucose concentration vs vehicle [3]: did not significantly change; serum triglycerides concentration vs vehicle [3]: did not significantly change; total cholesterol concentration vs vehicle [3]: slight but statistically significant (p < 0.05) increase
~1	113	7.4	0.0936	0.102	0.742	5.11	38.4	342	12	0.144	0.0995	1.11	0.25	0.25	8.6	5.3	~4.7	0.25	5.29	COc1cc2ncnc(N3CCC(CN4CCN(c5ccc(Cl)cc5)CC4)C3)c2cc1OC (stereo not drawn) [PQA-AZ6, 4-(3-((4-(4-Chlorophenyl)piperazin-1-yl)methyl)pyrrolidin-1-yl)-6,7-dimethoxyquinazoline]	AUC0→t ([1]; i.g. 2 mg/kg, brain): 45,623 ng·min/g; t0.5 ([1]; i.g. 2 mg/kg, brain): 1928 min; t0.5 ([1]; i.g. 2 mg/kg, plasma): 216.8 min; AUC0→t ([1]; i.v. 0.5 mg/kg, brain): 48,321 ng·min/g; t0.5 ([1]; i.v. 0.5 mg/kg, brain): 597 min; t0.5 ([1]; i.v. 0.5 mg/kg, plasma): 54.2 min; viability at 48 h, 75 µM [2]: 84%; serum glucose concentration vs vehicle [3]: did not significantly change; serum triglycerides concentration vs vehicle [3]: did not significantly change
